According to US8471005B2 (Cephalon, Inc., priority 2008, dated 2013):
pIC50: −log10 of the molar value. Read-outs that look alike come from different tables or passages of the source.

Experiments:
ALK = molecular target: T1, ALK (Homo sapiens, UniProt Q9UM73); assay: ALK Kinase Assay (ELISA/TRF, PLC-γ substrate); assay type: biochemical; conditions: read-out: ALK Potency
T1 construct: host or cells: baculovirus expression system
Summary of the method: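 Time-resolved fluorescence ELISA using Eu-N1 PT66 antibody to detect phosphorylated PLC-γ (coated at 10 μg/mL). Enzyme at 30 ng/ml ALK; 15 min incubation, 37° C.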

JAK2 = molecular target: T2, JAK2 (Homo sapiens, UniProt O60674); assay: Recombinant Human JAK2 Kinase Assay (TRF); assay type: biochemical; conditions: read-out: JAK2 Potency
T2 construct: host or cells: baculovirus expression system
Summary of the method: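 Kinase activity of baculovirus-expressed JAK2 is followed on a surface-immobilised biotinylated peptide, with the reaction run for 20 min at room temperature in buffer containing 0.2 μM ATP and manganese. Phosphorylation is read with Eu-N1 PY100 antibody.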

[1] = ALK kinase inhibition, 1 μM ATP
[2] = JAK2 kinase inhibition, 0.2 μM ATP

T2 sequence (O60674 whole entry): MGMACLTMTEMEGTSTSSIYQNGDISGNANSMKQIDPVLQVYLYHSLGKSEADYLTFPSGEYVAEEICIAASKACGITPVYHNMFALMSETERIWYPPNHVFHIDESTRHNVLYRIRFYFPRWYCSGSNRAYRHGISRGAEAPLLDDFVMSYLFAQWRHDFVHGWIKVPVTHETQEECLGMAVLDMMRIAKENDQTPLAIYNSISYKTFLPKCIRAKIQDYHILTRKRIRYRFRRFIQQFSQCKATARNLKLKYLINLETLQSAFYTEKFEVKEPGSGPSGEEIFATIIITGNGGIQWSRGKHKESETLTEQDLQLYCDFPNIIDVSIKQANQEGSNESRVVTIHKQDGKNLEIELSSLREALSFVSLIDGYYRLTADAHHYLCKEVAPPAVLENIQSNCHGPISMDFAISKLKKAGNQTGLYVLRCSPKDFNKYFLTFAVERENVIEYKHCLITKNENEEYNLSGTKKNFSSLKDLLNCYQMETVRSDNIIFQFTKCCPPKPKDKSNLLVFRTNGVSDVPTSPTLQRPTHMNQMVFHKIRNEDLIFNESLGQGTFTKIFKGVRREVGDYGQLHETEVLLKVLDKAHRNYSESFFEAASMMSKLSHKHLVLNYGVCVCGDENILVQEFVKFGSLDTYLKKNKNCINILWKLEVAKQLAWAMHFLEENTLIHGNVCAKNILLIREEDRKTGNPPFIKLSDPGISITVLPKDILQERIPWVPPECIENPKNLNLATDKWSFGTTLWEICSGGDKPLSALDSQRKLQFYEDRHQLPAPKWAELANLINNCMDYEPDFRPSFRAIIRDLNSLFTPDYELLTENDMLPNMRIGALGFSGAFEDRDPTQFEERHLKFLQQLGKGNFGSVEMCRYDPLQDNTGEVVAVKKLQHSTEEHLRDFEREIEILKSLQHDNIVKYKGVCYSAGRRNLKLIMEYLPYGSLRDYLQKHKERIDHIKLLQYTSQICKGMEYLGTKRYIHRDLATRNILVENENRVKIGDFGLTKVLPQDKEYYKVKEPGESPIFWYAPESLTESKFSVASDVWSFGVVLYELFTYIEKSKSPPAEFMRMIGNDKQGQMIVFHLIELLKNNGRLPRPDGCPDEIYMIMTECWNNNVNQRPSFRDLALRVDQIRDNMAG
T1 sequence (Q9UM73 19-1620): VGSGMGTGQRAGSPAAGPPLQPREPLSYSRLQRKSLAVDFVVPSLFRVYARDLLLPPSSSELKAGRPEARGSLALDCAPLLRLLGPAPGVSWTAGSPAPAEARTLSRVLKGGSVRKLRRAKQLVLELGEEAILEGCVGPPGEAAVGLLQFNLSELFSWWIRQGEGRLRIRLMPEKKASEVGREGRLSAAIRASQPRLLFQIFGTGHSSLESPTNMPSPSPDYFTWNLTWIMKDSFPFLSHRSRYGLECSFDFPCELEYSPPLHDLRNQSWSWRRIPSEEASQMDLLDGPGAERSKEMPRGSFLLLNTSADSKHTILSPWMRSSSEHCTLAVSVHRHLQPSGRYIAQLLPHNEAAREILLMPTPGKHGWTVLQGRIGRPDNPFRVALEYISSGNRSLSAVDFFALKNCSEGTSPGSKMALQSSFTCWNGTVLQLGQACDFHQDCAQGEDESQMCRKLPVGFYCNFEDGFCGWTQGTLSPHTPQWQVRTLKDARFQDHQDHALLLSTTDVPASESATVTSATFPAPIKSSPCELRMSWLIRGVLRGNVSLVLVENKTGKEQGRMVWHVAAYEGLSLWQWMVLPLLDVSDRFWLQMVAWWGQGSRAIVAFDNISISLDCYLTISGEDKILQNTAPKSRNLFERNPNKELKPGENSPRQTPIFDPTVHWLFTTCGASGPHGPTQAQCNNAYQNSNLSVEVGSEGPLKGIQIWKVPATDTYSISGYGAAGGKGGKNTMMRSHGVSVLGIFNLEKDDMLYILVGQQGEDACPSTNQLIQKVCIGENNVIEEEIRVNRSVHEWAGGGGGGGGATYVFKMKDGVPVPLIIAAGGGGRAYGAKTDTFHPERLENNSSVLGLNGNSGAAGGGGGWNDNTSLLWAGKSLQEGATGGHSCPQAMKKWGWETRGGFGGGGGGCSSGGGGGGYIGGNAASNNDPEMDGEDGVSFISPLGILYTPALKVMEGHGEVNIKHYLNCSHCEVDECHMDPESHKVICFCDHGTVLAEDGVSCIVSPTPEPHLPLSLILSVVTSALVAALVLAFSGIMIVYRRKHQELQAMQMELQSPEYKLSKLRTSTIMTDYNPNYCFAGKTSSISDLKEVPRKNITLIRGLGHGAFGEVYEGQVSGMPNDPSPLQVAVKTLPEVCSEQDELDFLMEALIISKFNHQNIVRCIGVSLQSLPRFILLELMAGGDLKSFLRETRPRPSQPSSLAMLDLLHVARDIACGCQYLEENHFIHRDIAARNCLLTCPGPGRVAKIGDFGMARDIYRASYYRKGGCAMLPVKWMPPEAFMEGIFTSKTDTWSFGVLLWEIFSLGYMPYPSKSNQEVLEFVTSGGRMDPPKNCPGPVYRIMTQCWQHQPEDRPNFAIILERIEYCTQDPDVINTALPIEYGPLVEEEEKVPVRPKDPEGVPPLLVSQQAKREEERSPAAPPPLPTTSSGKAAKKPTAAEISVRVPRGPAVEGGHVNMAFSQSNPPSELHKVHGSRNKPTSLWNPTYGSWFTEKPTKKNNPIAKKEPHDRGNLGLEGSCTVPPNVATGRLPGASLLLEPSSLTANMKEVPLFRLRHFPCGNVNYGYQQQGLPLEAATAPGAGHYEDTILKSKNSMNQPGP

Row | Structure (SMILES) | pIC50 (ALK; ALK Kinase Inhibition) | pIC50 (JAK2; JAK2 Kinase Inhibition) | pIC50 (ALK; [1]) | pIC50 (JAK2; [2])
1 | Clc1cccc(-c2ccc3cnc(Nc4cccc(N5CCOCC5)c4)nn23)c1 [Example 148, [7-(3-Chloro-phenyl)-pyrrolo[2,1-f][1,2,4]triazin-2-yl]-(3-morpholin-4-yl-phenyl)-amine] | 5.00 to 6.00 | > 7.00 |  | 
2 | CN1CCN(c2ccc(Nc3ncc4ccc(-c5cccc(C(=O)N6CCCC6)c5)n4n3)cc2)CC1 [Example 21, (3-{2-[4-(4-Methyl-piperazin-1-yl)-phenylamino]-pyrrolo[2,1-f][1,2,4]triazin-7-yl}-phenyl)-pyrrolidin-1-yl-methanone] | 6.00 to 7.00 | > 7.00 |  | 
3 | COc1ccc(Cl)cc1-c1ccc2cnc(Nc3cccc(N4CCN(CC(C)(C)O)CC4)c3)nn12 [Example 219, 1-(4-{3-[7-(5-Chloro-2-methoxy-phenyl)-pyrrolo[2,1-f][1,2,4]triazin-2-ylamino]-phenyl}-piperazin-1-yl)-2-methyl-propan-2-ol] | > 7.00 | > 7.00 |  | 
4 | CN1CCN(c2ccc(Nc3ncc4ccc(-c5ccccc5C(N)=O)n4n3)cc2)CC1 [Example 409, 2-{2-[4-(4-Methyl-piperazin-1-yl)-phenylamino]-pyrrolo[2,1-f][1,2,4]triazin-7-yl}-benzamide] | 6.00 to 7.00 | > 7.00 |  | 
5 | CN(C)CCNC(=O)c1ccc(-c2ccc3cnc(Nc4ccc(N5CCOCC5)cc4)nn23)cc1 [Example 52, N-(2-Dimethylamino-ethyl)-4-[2-(4-morpholin-4-yl-phenylamino)-pyrrolo[2,1-f][1,2,4]triazin-7-yl]-benzamide] | 6.00 to 7.00 | > 7.00 |  | 
6 | COc1cc(N2CCC(N3CCOCC3)CC2)ccc1Nc1ncc2ccc(-c3cccc4c3OCCO4)n2n1 [Example 546, [7-(2,3-Dihydro-1,4-benzodioxin-5-yl)-pyrrolo[2,1-f][1,2,4]triazin-2-yl]-[2-methoxy-4-(4-morpholin-4-yl-piperidin-1-yl)-phenyl]-amine] |  |  | > 7.00 | > 7.00
7 | COc1ccccc1-c1ccc2cnc(Nc3cccc(C(=O)N4CCN(C)CC4)c3)nn12 [Example 338, {3-[7-(2-Methoxy-phenyl)-pyrrolo[2,1-f][1,2,4]triazin-2-ylamino]-phenyl}-(4-methyl-piperazin-1-yl)-methanone] | 6.00 to 7.00 | > 7.00 |  | 
8 | COc1ccccc1-c1cc(Br)n2nc(Nc3ccc(N4CCN(C)CC4)cc3)ncc12 [Example 102, [7-Bromo-5-(2-methoxy-phenyl)-pyrrolo[2,1-f][1,2,4]triazin-2-yl]-[4-(4-methyl-piperazin-1-yl)-phenyl]-amine] | < 5.00 | 5.00 to 6.00 |  | 
9 | COc1ccccc1-c1ccc2cnc(Nc3ccc(N4CCOCC4)cc3F)nn12 [Example 370, (2-Fluoro-4-morpholin-4-yl-phenyl)-[7-(2-methoxy-phenyl)-pyrrolo[2,1-f][1,2,4]triazin-2-yl]-amine] | 6.00 to 7.00 | > 7.00 |  | 
10 | CN(C)c1cccc(Nc2ncc3ccc(-c4cccc(Cl)c4)n3n2)c1 [Example 159, N-[7-(3-Chloro-phenyl)-pyrrolo[2,1-f][1,2,4]triazin-2-yl]-N′,N′-dimethyl-benzene-1,3-diamine] | < 5.00 | 5.00 to 6.00 |  | 
11 | COc1cc(Nc2ncc3ccc(-c4ccccc4OC)n3n2)cc(OC)c1 [Example 158, (3,5-Dimethoxy-phenyl)-[7-(2-methoxy-phenyl)-pyrrolo[2,1-f][1,2,4]triazin-2-yl]-amine] | 6.00 to 7.00 | > 7.00 |  | 
12 | COc1cc(C2CCN(C[C@@H](O)CO)CC2)c(F)cc1Nc1ncc2ccc(-c3ccccc3OC)n2n1 [Example 550, (R)-3-(4-{2-Fluoro-5-methoxy-4-[7-(2-methoxy-phenyl)-pyrrolo[2,1-f][1,2,4]triazin-2-ylamino]-phenyl}-piperidin-1-yl)-propane-1,2-diol] |  |  | > 7.00 | 6.00 to 7.00
13 | COc1cc(N2CCC(N3CCOCC3)CC2)ccc1Nc1ncc2ccc(-c3ccccc3CS(C)(=O)=O)n2n1 [Example 549, [7-(2-Methanesulfonylmethyl-phenyl)-pyrrolo[2,1-f][1,2,4]triazin-2-yl]-[2-methoxy-4-(4-morpholin-4-yl-piperidin-1-yl)-phenyl]-amine] |  |  | 6.00 to 7.00 | 5.00 to 6.00
14 | COc1ccc(Cl)cc1-c1ccc2cnc(Nc3ccc(N4CCC(N5CCN(C)CC5)CC4)cc3)nn12 [Example 311, [7-(5-Chloro-2-methoxy-phenyl)-pyrrolo[2,1-f][1,2,4]triazin-2-yl]-{4-[4-(4-methyl-piperazin-1-yl)-piperidin-1-yl]-phenyl}-amine] | > 7.00 | > 7.00 |  | 
15 | Clc1cccc(-c2ccc3cnc(Nc4ccc5[nH]ccc5c4)nn23)c1 [Example 176, [7-(3-Chloro-phenyl)-pyrrolo[2,1-f][1,2,4]triazin-2-yl]-(1H-indol-5-yl)-amine] | < 5.00 | > 7.00 |  | 
16 | COc1ccccc1-c1ccc2cnc(Nc3ccc(OC)c(N4CCOCC4)c3)nn12 [Example 394, (4-Methoxy-3-morpholin-4-yl-phenyl)-[7-(2-methoxy-phenyl)-pyrrolo[2,1-f][1,2,4]triazin-2-yl]-amine] | > 7.00 | > 7.00 |  | 
17 | COc1ccc(Nc2ncc3ccc(-c4cc(Cl)ccc4OC)n3n2)cc1 [Example 153, [7-(5-Chloro-2-methoxy-phenyl)-pyrrolo[2,1-f][1,2,4]triazin-2-yl]-(4-methoxy-phenyl)-amine] | < 5.00 | > 7.00 |  | 

Next, values leading:

Row | pIC50 (ALK; ALK Kinase Inhibition) | pIC50 (JAK2; JAK2 Kinase Inhibition) | pIC50 (ALK; [1]) | pIC50 (JAK2; [2]) | Structure (SMILES)
18 |  |  | 6.00 to 7.00 | > 7.00 | CN(c1ccccc1-c1ccc2cnc(Nc3ccc4cnn(C)c4c3)nn12)S(C)(=O)=O [Example 1340, N-Methyl-N-{2-[2-(1-methyl-1H-indazol-6-ylamino)-pyrrolo[2,1-f][1,2,4]triazin-7-yl]-phenyl}-methanesulfonamide]
19 | 5.00 to 6.00 | > 7.00 |  |  | COc1cccc(Nc2ncc3ccc(-c4cccc(S(=O)(=O)NC(C)(C)C)c4)n3n2)c1 [Example 1396, N-tert-Butyl-3-[2-(3-methoxy-phenylamino)-pyrrolo[2,1-f][1,2,4]triazin-7-yl]-benzenesulfonamide]
20 |  |  | > 7.00 | > 7.00 | COc1cc(Nc2ncc3ccc(-c4ccccc4N(C)S(C)(=O)=O)n3n2)ccc1C1CCN(C)CC1 [Example 913, N-(2-{2-[3-Methoxy-4-(1-methyl-piperidin-4-yl)-phenylamino]-pyrrolo[2,1-f][1,2,4]triazin-7-yl}-phenyl)-N-methyl-methanesulfonamide]
21 |  |  | < 5.00 | 5.00 to 6.00 | CN1CCc2ccc(Nc3ncc4c(-c5ccc(F)cc5)ccn4n3)cc2C1 [Example 728, [5-(4-Fluoro-phenyl)-pyrrolo[2,1-f][1,2,4]triazin-2-yl]-(2-methyl-1,2,3,4-tetrahydro-isoquinolin-7-yl)-amine]
22 |  |  | 6.00 to 7.00 | > 7.00 | CN1CCN(c2ccc(Nc3ncc4ccc(C5=CCN(C(=O)OC(C)(C)C)CC5)n4n3)cc2)CC1 [Example 1135, 4-{2-[4-(4-Methyl-piperazin-1-yl)-phenylamino]-pyrrolo[2,1-f][1,2,4]triazin-7-yl}-3,6-dihydro-2H-pyridine-1-carboxylic acid tert-butyl ester]
23 |  |  | 6.00 to 7.00 | > 7.00 | CS(=O)(=O)c1ccc(-c2ccc3cnc(Nc4ccc5c(c4)CCC(N4CCOCC4)CC5)nn23)cc1 (stereo not shown) [Example 612, [7-(4-Methanesulfonyl-phenyl)-pyrrolo[2,1-f][1,2,4]triazin-2-yl]-(7-morpholin-4-yl-6,7,8,9-tetrahydro-5H-benzocyclohepten-2-yl)-amine]
24 |  |  | > 7.00 | 5.00 to 6.00 | COc1cc([C@@H]2CCNC[C@@H]2O)ccc1Nc1ncc2ccc(-c3ccccc3N(C)S(C)(=O)=O)n2n1 (racemic) [Example 841, (±)-N-(2-{2-[4-((3R,4S)-3-Hydroxy-piperidin-4-yl)-2-methoxy-phenylamino]-pyrrolo[2,1-f][1,2,4]triazin-7-yl}-phenyl)-N-methyl-methanesulfonamide]
25 |  |  | < 5.00 | > 7.00 | CS(=O)(=O)c1ccc(-c2ccc3cnc(Nc4ccc5nc(C(F)(F)F)[nH]c5c4)nn23)cc1 [Example 1302, [7-(4-Methanesulfonyl-phenyl)-pyrrolo[2,1-f][1,2,4]triazin-2-yl]-(2-trifluoromethyl-3H-benzimidazol-5-yl)-amine]
26 |  |  | 6.00 to 7.00 | > 7.00 | CN(c1ccccc1-c1ccc2cnc(Nc3ccc4cn[nH]c4c3)nn12)S(C)(=O)=O [Example 1337, N-{2-[2-(1H-Indazol-6-ylamino)-pyrrolo[2,1-f][1,2,4]triazin-7-yl]-phenyl}-N-methyl-methanesulfonamide]
27 | 6.00 to 7.00 | > 7.00 |  |  | COCc1ccc(-c2ccc3cnc(Nc4ccc(N5CCN(C)CC5)cc4)nn23)cc1 [Example 1499, [7-(4-Methoxymethyl-phenyl)-pyrrolo[2,1-f][1,2,4]triazin-2-yl]-[4-(4-methyl-piperazin-1-yl)-phenyl]-amine]
28 |  |  | 6.00 to 7.00 | > 7.00 | COc1ccccc1-c1ccc2cnc(Nc3ccc4ncn(CCN5CCOCC5)c4c3)nn12 [Example 1349, [7-(2-Methoxy-phenyl)-pyrrolo[2,1-f][1,2,4]triazin-2-yl]-[3-(2-morpholin-4-yl-ethyl)-3H-benzimidazol-5-yl]-amine]
29 |  |  | > 7.00 | > 7.00 | CN(c1ccccc1-c1ccc2cnc(Nc3ccc(C4CCN(CCO)CC4)cc3)nn12)S(C)(=O)=O [Example 669, N-[2-(2-{4-[1-(2-Hydroxy-ethyl)-piperidin-4-yl]-phenylamino}-pyrrolo[2,1-f][1,2,4]triazin-7-yl)-phenyl]-N-methyl-methanesulfonamide]
